Data reported in the supplement of paper PMC10307832.

Tests used:
Assay in all cases: relative viability (nuclei count vs DMSO), 5 days (fraction); higher = more cells survive
Sorafenib = compound: CNC(=O)c1cc(Oc2ccc(NC(=O)Nc3ccc(Cl)c(C(F)(F)F)c3)cc2)ccn1 [Sorafenib]
In short: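 In 1536-well plates, lung cancer cell lines rested overnight at 37 °C before five library-drug doses (not always all listed), √10 apart, were pinned onto vehicle-anchored plates. Nuclei were counted with MetaXpress from 4× Hoechst images taken after 5 days without medium change. Viability compares treated-well with vehicle-well nuclei as a median over plates, and plates needed control CV below 25% plus at least one doubling to pass.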

Sorafenib + OSI-027 = compound: CNC(=O)c1cc(Oc2ccc(NC(=O)Nc3ccc(Cl)c(C(F)(F)F)c3)cc2)ccn1 [Sorafenib] + COc1cccc2cc(-c3nc([C@H]4CC[C@H](C(=O)O)CC4)n4ncnc(N)c34)[nH]c12 [OSI-027] (partner 0.5 µM)
In short: (§1)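 Relative viability is defined as nuclei in treated wells over nuclei in vehicle wells. Duplicate plates were run and medians reported. Lung cancer cell lines in 1536-well plates were dosed by pin tool one day after seeding, with one drug or with a fixed anchor-drug dose plus five library-drug doses (not always all listed) in √10 steps, and nuclei were counted after 5 days.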

Sorafenib + Linsitinib = compound: CNC(=O)c1cc(Oc2ccc(NC(=O)Nc3ccc(Cl)c(C(F)(F)F)c3)cc2)ccn1 [Sorafenib] + C[C@]1(O)C[C@@H](c2nc(-c3ccc4ccc(-c5ccccc5)nc4c3)c3c(N)nccn32)C1 [Linsitinib] (partner 1 µM)
In short: as §1

Sorafenib + Tozasertib = compound: CNC(=O)c1cc(Oc2ccc(NC(=O)Nc3ccc(Cl)c(C(F)(F)F)c3)cc2)ccn1 [Sorafenib] + Cc1cc(Nc2cc(N3CCN(C)CC3)nc(Sc3ccc(NC(=O)C4CC4)cc3)n2)n[nH]1 [Tozasertib] (partner 0.1 µM)
In short: as §1

Sorafenib + AZD7762 = compound: CNC(=O)c1cc(Oc2ccc(NC(=O)Nc3ccc(Cl)c(C(F)(F)F)c3)cc2)ccn1 [Sorafenib] + NC(=O)Nc1cc(-c2cccc(F)c2)sc1C(=O)N[C@H]1CCCNC1 [AZD7762] (partner 0.2 µM)
In short: as §1

Cell Line	relative viability (Sorafenib; 0.08 µM)	relative viability (Sorafenib; 0.253 µM)	relative viability (Sorafenib; 8 µM)	relative viability (Sorafenib + OSI-027; first compound 0.08 µM)	relative viability (Sorafenib + OSI-027; first compound 0.253 µM)	relative viability (Sorafenib + OSI-027; first compound 2.53 µM)	relative viability (Sorafenib + OSI-027; first compound 8 µM)	relative viability (Sorafenib + Linsitinib; first compound 0.08 µM)	relative viability (Sorafenib + Linsitinib; first compound 0.253 µM)	relative viability (Sorafenib + Linsitinib; first compound 2.53 µM)	relative viability (Sorafenib + Linsitinib; first compound 8 µM)	relative viability (Sorafenib + Tozasertib; first compound 0.08 µM)	relative viability (Sorafenib + Tozasertib; first compound 0.253 µM)	relative viability (Sorafenib + Tozasertib; first compound 2.53 µM)	relative viability (Sorafenib + Tozasertib; first compound 8 µM)	relative viability (Sorafenib + AZD7762; first compound 0.08 µM)	relative viability (Sorafenib + AZD7762; first compound 0.253 µM)	relative viability (Sorafenib + AZD7762; first compound 2.53 µM)	relative viability (Sorafenib + AZD7762; first compound 8 µM)	relative viability (Sorafenib; 2.53 µM)
LCLC-97TM1	1.16	0.778	0.703	0.552	0.515	0.336	0.272	0.224	0.161	0.153	0.184	0.191	0.232	0.195	0.188	0.311	0.139	0.229	0.214	
LCLC-103H	0.975	0.946	1.03	0.556	0.425	0.528	0.469	1.21	0.981	1.12	1.2	0.489	0.548	0.419	0.569	0.778	0.652	0.769	0.843	1.13
LK-2	1.09	0.766	0.494	0.201	0.193	0.19	0.139	0.672	0.364	0.451	0.516	0.17	0.226	0.17	0.153	0.394	0.338	0.413	0.134	0.848
LOU-NH91	1.1	0.967		0.783	0.713	0.788	0.799	1.07	0.973	1.13	0.873	0.69	0.681	0.767	0.647	0.804	0.721	0.876	0.671	1.17
LU99A	0.997	0.94	0.696	0.299	0.27	0.299	0.272	0.533	0.488	0.507	0.496	0.305	0.278	0.247	0.26	0.369	0.307	0.321	0.155	0.777
LXF-289	1.06	0.97	0.958	0.787	0.814		0.764	0.977	0.986	1.04	0.894	0.178	0.184	0.177	0.174	1.12	1.11	1.17	1.05	1.03
NCI-H23	1	0.875	0.704		0.501	0.488	0.398	0.626	0.439	0.553	0.512	0.362	0.286	0.276	0.219	0.193	0.323	0.229	0.159	0.974
NCI-H322M	1.14	0.918	1.27	0.615	0.48	0.542	0.587	0.886	1.05	0.912	0.984	0.512	0.394	0.527	0.475	0.65	0.511	0.533	0.595	1.3
NCI-H358	1.04	1.05	0.688		0.75	0.839		0.763	0.85	0.748	0.255	0.112	0.0906	0.0966	0.073	0.539		0.79	0.368	1.01
NCI-H441	1.05	0.783	0.584	0.588		0.423	0.297	0.563	0.417	0.355	0.302	0.644		0.542	0.386	1.03	0.946	0.841	0.855	0.908
NCI-H460	1.01	0.918	0.654	0.761	0.596	0.459	0.0191	0.838	0.771	0.684	0.215	0.514	0.386	0.414	0.0751	0.586	0.444		0.414	1
NCI-H596	0.993	1.03	0.969	0.732	0.664	0.671	0.447	1.06	0.982	1.07	1.26	1.01	0.907	0.871	0.406	1.21	1	0.94	0.819	1.18
NCI-H647	1.05	0.763	0.492	0.62	0.634	0.506	0.427	1.16	0.992	0.976	0.243	0.246	0.218	0.165	0.0549	0.415	0.298	0.64	0.35	0.853
NCI-H650	1.08	0.82	0.78	0.541	0.363	0.451	0.504	0.81	0.664	0.776	0.716	0.718	0.659	0.62	0.592	1.31	0.691	0.96	0.936	0.83
NCI-H727	1.15	0.768	0.691	0.688	0.542	0.619	0.508	0.29	0.226	0.33	0.231	0.643	0.638	0.555	0.487	0.716	0.6		0.502	0.88
NCI-H838	1.04	0.996	0.994	0.52	0.438	0.615	0.539	1.1		1.24	0.485	0.278	0.261	0.284	0.197	0.971	0.93		0.923	1.17

Cell Line	relative viability (Sorafenib; 0.08 µM)	relative viability (Sorafenib; 0.253 µM)	relative viability (Sorafenib; 8 µM)	relative viability (Sorafenib + OSI-027; first compound 0.08 µM)	relative viability (Sorafenib + OSI-027; first compound 0.253 µM)	relative viability (Sorafenib + OSI-027; first compound 2.53 µM)	relative viability (Sorafenib + OSI-027; first compound 8 µM)	relative viability (Sorafenib + Linsitinib; first compound 0.08 µM)	relative viability (Sorafenib + Linsitinib; first compound 0.253 µM)	relative viability (Sorafenib + Linsitinib; first compound 2.53 µM)	relative viability (Sorafenib + Linsitinib; first compound 8 µM)	relative viability (Sorafenib + Tozasertib; first compound 0.08 µM)	relative viability (Sorafenib + Tozasertib; first compound 0.253 µM)	relative viability (Sorafenib + Tozasertib; first compound 2.53 µM)	relative viability (Sorafenib + Tozasertib; first compound 8 µM)	relative viability (Sorafenib + AZD7762; first compound 0.08 µM)	relative viability (Sorafenib + AZD7762; first compound 0.253 µM)	relative viability (Sorafenib + AZD7762; first compound 2.53 µM)	relative viability (Sorafenib + AZD7762; first compound 8 µM)	relative viability (Sorafenib; 2.53 µM)
NCI-H1355	1.02	0.921	0.788	0.459	0.38	0.512	0.336	0.925	0.823	0.785	0.781	0.55	0.592	0.416	0.354	0.805	0.713	0.651	0.546	0.958
NCI-H1395	1.1	0.76	0.775	0.691	0.562	0.72	0.459	1.15	0.901	0.991	1.13	0.748	0.729	0.8	0.634	0.424		0.428	0.429	1.02
NCI-H1437	0.999	0.872	0.583	0.949	0.676	0.8	0.558	0.989	1	0.657	0.244	0.419	0.384	0.416	0.291	1.23	1.05	1.13	0.539	0.945
NCI-H1651	1.07	0.958		0.777	0.687	0.655	0.622	1.14	0.885	0.91	0.396	0.833	0.643	0.698	0.445	0.537	0.362	0.399	0.322	0.985
NCI-H1666	0.992	0.913	0.844	0.912	0.781	0.798	0.692	0.927	0.82	0.656	0.611	0.681	0.641	0.581	0.503	0.865	0.778	0.797	0.719	0.985
NCI-H1734		0.97	0.618	0.585	0.534	0.584	0.318	0.967	0.836	0.841	0.742	0.266	0.224	0.249	0.212	0.572	0.497	0.505		0.909
NCI-H1755	1.04		0.936	0.718	0.639	0.746	0.666	1.03	1.02	0.971	0.743	0.498	0.532	0.471	0.456	0.474	0.383	0.504	0.312	0.973
NCI-H1793	1.06	0.944	0.596	0.29	0.303	0.299	0.162	1.18	0.896	1.01	1.21	0.467	0.374	0.242	0.182	0.926	0.306	0.385	0.146	1.15
NCI-H1915	0.956	0.894	0.945	0.659	0.558	0.682	0.512	1.06	0.952	0.949	1.15	0.454	0.409	0.397	0.374	0.722	0.51	0.558	0.669	0.934
NCI-H1944	0.923	0.927	0.734	0.4	0.381	0.436	0.334	1.21	1.24	1.3	1.09	0.281	0.292	0.266	0.206	0.584	0.453	0.679	0.31	0.932
NCI-H1975	1.05	0.889	1.03	0.812	0.55	0.695	0.375	1.01	1.02	1.08	0.491	0.873	0.704	0.643	0.162	0.807	0.633	0.803	0.809	1.1
NCI-H1993	1.09	0.968	0.812	0.477	0.517	0.504	0.435	0.774	0.675		0.819	0.601	0.565	0.584	0.608	0.793	0.763	0.913	0.397	1.19
NCI-H2085	1.06	0.972	0.895	0.934	0.544	0.704	0.396	0.962	0.924	1.07	0.728	0.849	0.833	0.611		1.04	0.874	1.03	0.604	1.04
NCI-H2087	1.12		0.4	0.658	0.556	0.455	0.3	0.756	0.853	0.956	0.275	0.26	0.241	0.212	0.152	1.39	1.08	1.02	0.264	0.927
NCI-H2126	1.02	0.997	1	0.824	0.665	0.712	0.703	0.754	0.706	0.745		0.93	0.842	0.866		1.01	1.01	1.07	0.982	1.07
NCI-H2347	1.11	0.964	0.944	0.48	0.378	0.458	0.391		0.921	0.973	0.999	0.646	0.599	0.509	0.426	0.784	0.664	0.636	0.47	1.01
